Reference: PubChem BioAssay (NCI)
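Growth conditions: 96-well plates. Treatment: test compound, 48 hours, 5 concentrations. Analysis: linear interpolation between bracketing concentrations; unreached endpoints set to highest concentration. TGI denotes the concentration required for complete inhibition of growth.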

Tests used:
Test in all cases: NCI tumour cell line growth inhibition, 48 h
[1] = tested on: A498 renal
[2] = tested on: CAKI-1 renal
[3] = tested on: CCRF-CEM leukemia
[4] = tested on: HCT-15 colon
[5] = tested on: HOP-62 NSCLC
[6] = tested on: MALME-3M melanoma
[7] = tested on: OVCAR-5 ovarian
[8] = tested on: SF-268 CNS
[9] = tested on: SF-295 CNS
[10] = tested on: U251 CNS

Measured: TGI

ClC1=NN=C(c2c[nH]c3ccccc23)CC1NCc1ccccc1 (stereo not given)
> 100 µM: [1] | [2] | [3] | [4] | [5] | [6] | [7] | [8] | [9] | [10]

COc1cc2c(cc1OC)C(=O)N(c1ccc(OCCN3CCCC3)cc1)C2
> 100 µM: [1] | [2] | [3] | [4] | [5] | [6] | [7] | [8] | [9] | [10]
